# Measured values reported in patent US7585839B2, “Medical uses of intercellular communication facilitating compounds” (Zealand Pharma A/S, priority 2001, dated 2009).
# Where a SMILES comes first, the peptide text is derived from it. [ ]: non-standard residue; d: D form. Hyp = O=C(O)[C@@H]1C[C@@H](O)CN1; dHyp = O=C(O)[C@H]1C[C@H](O)CN1; Pip = O=C(O)[C@@H]1CCCCN1; Sar = CNCC(=O)O
# Tested on: calcium-induced arrythmias
# Test: Calcium-induced arrhythmia model in mice (CaCl2-induced 2nd degree AV-block)
# Format: in vivo
# Design: CaCl2 mice Score: scale not given here
# Conditions: for CaCl2 mice Score / CaCl2 mice In vivo, %: calcium chloride induced arrythmia model; for In vivo activity: maximal effect, increase in time until 2nd degree AV-block relative to vehicle treated mice, i.v.
# Protocol: The antiarrhythmic effects of compounds of this invention were tested in an in vivo model of calcium-induced arrythmias according to the model of Lynch et al.^[37]. […]. Commercial solutions of hypnorm and midazolam were diluted 1:1 in distilled water and one part diluted Hypnorm® is mixed with one part diluted midazolam.
# The anaesthesia was induced by s.c. administration in a dose of 0.05-0.075 μl/10 gram mouse. An i.v. cannula was inserted into the tail vein. The lead II ECG signal was recorded continuously by positioning of a stainless steel ECG electrodes on the right forelimb and on the left hind limb. The ground electrode was placed on the right hind limb. The signal was amplified (×5.000-10.000) and filtered (0.1-150 Hz) via a Hugo Sachs Electronic model 689 ECG module. The analogue signal was digitised via a 12 bit data acquisition board (Data Translation model DT321) and sampled at 1000 Hz using the Notocord HEM 3.1 software for Windows NT. After a 10-min equilibration period, the test sample of drug was injected into the tail vein. Mice pre-treated with vehicle were tested as a measure of the control level in untreated animals. The injection volume was 100 μl in all experiments. Infusion of CaCl2 (30 mg/ml, 0.1 ml/min≈100 mg/kg/min (calciumchlorid-2-hydrat, Riedel-de Haën, Germany)) was started 3 min after i.v. administration of drug or vehicle.
# The time lag to onset of 2nd degree AV-block was determined as the time from the start of CaCl2 infusion until the first arrhythmic event occured. An event of 2nd degree AV-block was defined as intermittent failure of the AV conduction characterised by a P-wave without the concomitant QRS complex.
# Responses were expressed relative to the time until 2nd degree AV-block occurred in vehicle treated mice.
Compound,CaCl2 mice Score,"CaCl2 mice In vivo, %",In vivo activity
"C[C@H](NC(=O)CN)C(=O)NCC(=O)N1CCC[C@@H]1C(=O)N[C@@H](C)C(=O)N[C@@H](Cc1ccc(O)cc1)C(N)=O [Compound 7, H-Gly-Ala-Gly-D-Pro-Ala-Tyr-NH2] (H-GAG[dP]AY-NH2)",1,–,–
3(4-hydroxyphenyl)propionyl-Pro-Hyp-Gly-Ala-Gly-Lys-Lys-Lys-Lys-Lys-Lys-OH [Compound 49],3,80 +/− 17%,–
"C[C@H](NC(=O)CN)C(=O)N(C)CC(=O)N1C[C@H](O)C[C@H]1C(=O)N1CCC[C@H]1C(=O)N[C@@H](Cc1ccc(O)cc1)C(N)=O [Compound 30, H-Gly-Ala-Sar-Hyp-Pro-Tyr-NH2] (H-GA[Sar][Hyp]PY-NH2)",2,–,++ (++ refers to 30-50% increase in time until arrhythmia)
NCC(=O)N[C@H](CC(N)=O)C(=O)N[C@@H](Cc1ccc(O)cc1)C(N)=O [H-G-DN-Y-NH2] (H-Gly-[dN]-Tyr-NH2),–,37 +/− 10%,–
"C[C@H](NC(=O)CN)C(=O)NCC(=O)N1C[C@@H](O)C[C@@H]1C(=O)N1CCC[C@H]1C(=O)N[C@@H](Cc1ccc(O)cc1)C(N)=O [Compound 5, H-Gly-Ala-Gly-D-Hyp-Pro-Tyr-NH2] (H-GAG[dHyp]PY-NH2)",1,–,++ (++ refers to 30-50% increase in time until arrhythmia)
CC(=O)N[C@@H](Cc1ccc(O)cc1)C(=O)N[C@H](CC(N)=O)C(=O)NCC(=O)O [Ac-Y-DN-G-OH] (Ac-Tyr-[dN]-Gly-OH),–,44 +/− 10%,–
3(4-hydroxyphenyl)propionyl-Pro-Hyp-Gly-Ala-Gly-Lys-Lys-Lys-Lys-Lys-Lys-NH2 [Compound 51],1,21 +/− 17%,–
H-GAGGPY-NH2 [H-GAGGPY-NH2],–,32 +/− 9%,–
"H-GP[Hyp]GAG-OH [AAP, reference compound]",2,35 +/− 7%,–
"C[C@H](NC(=O)CN)C(=O)NCC(=O)N1C[C@@H](O)C[C@@H]1C(=O)N[C@@H](C)C(=O)N[C@@H](Cc1ccc(O)cc1)C(N)=O [Compound 9, H-Gly-Ala-Gly-D-Hyp-Ala-Tyr-NH2] (H-GAG[dHyp]AY-NH2)",1,–,+ (+ refers to 15-29% increase in time until arrhythmia)
Ac-Gly-Asn-Tyr-NH2 [Compound 40],2,46 +/− 9%,++ (++ refers to 30-50% increase in time until arrhythmia)
C[C@H](NC(=O)CN)C(=O)NCC(=O)N1C[C@H](O)C[C@H]1C(=O)N1CCC[C@H]1C(=O)N[C@@H](Cc1ccc(O)cc1)C(=O)N[C@@H](CCCCN)C(=O)N[C@@H](CCCCN)C(=O)N[C@@H](CCCCN)C(=O)N[C@@H](CCCCN)C(=O)N[C@@H](CCCCN)C(=O)N[C@@H](CCCCN)C(N)=O [Compound 50] (H-GAG[Hyp]PYKKKKKK-NH2),2,33 +/− 17%,–
"3-(4-hydroxyphenyl)propionyl-Pro-Hyp-Gly-Ala-Gly-OH [HP5, reference compound]",2,50 +/− 11%,++ (++ refers to 30-50% increase in time until arrhythmia)
Cyclo(Tyr-Pro-4Hyp-Gly-Ala-Gly-Asn) [Compound 3],2,59 +/− 9%,+++ (+++ refers to >60% increase in time until arrhythmia)
"C[C@H](NC(=O)CN)C(=O)NCC(=O)N1CCCC[C@H]1C(=O)N1CCC[C@H]1C(=O)N[C@@H](Cc1ccc(O)cc1)C(N)=O [Compound 14, H-Gly-Ala-Gly-PC-Pro-Tyr-NH2] (H-GAG[Pip]PY-NH2)",1,21 +/− 11%,+ (+ refers to 15-29% increase in time until arrhythmia)
NC(=O)CNC(=O)[C@H](CC(N)=O)NC(=O)[C@@H](N)Cc1ccc(O)cc1 [H-YNG-NH2] (H-Tyr-Asn-Gly-NH2),–,34 +/− 9%,–
